The record followed here is patent publication US9663513B2, “Pyrimidine PDE10 inhibitors” (Merck Sharp & Dohme Corp., priority 2012, dated 2017).

Broadly, the pKi is the negative decadic logarithm of the Ki, by convention in mol/L.

Molecules are shown by their SMILES. pKi: −log10 of the molar value.

Chain of human PDE10A2 (Q9Y233 267-1055): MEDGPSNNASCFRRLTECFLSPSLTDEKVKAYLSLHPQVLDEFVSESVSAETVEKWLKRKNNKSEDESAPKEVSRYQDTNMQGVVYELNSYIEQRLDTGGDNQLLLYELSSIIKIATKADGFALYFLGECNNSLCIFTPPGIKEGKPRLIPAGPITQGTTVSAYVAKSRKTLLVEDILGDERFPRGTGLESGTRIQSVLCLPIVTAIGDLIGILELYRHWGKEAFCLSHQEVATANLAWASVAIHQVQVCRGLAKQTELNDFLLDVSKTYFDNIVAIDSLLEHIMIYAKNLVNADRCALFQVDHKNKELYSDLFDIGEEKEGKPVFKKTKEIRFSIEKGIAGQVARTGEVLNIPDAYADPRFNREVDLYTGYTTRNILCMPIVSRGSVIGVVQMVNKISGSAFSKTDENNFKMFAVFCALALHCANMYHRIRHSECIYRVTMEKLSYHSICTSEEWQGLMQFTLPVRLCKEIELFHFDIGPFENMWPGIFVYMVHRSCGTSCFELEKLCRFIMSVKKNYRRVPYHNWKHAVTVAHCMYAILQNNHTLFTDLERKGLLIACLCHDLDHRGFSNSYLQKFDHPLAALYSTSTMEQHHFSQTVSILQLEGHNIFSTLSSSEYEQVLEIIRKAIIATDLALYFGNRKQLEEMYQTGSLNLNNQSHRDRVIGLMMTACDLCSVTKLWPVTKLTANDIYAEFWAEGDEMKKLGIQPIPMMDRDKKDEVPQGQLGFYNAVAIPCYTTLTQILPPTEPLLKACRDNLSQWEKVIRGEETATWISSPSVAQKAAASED

For this test, the target named is human PDE10A2 (Homo sapiens (Human), UniProt Q9Y233). The test can be described thus: PDE10 fluorescence polarization (IMAP FP) inhibition assay. Conditions: human PDE10A2 from transfected AD293 cells; FAM-labeled cAMP 50 nM; apparent inhibition constant; read-out: PDE10A Ki. Format: biochemical. How it is done:
The activity of the compounds in accordance with the present invention as PDE10 inhibitors may be readily determined without undue experimentation using a fluorescence polarization (FP) methodology that is well known in the art (Huang, W., et al., J. Biomol Screen, 2002, 7: 215).
In a typical experiment the PDE10 inhibitory activity of the compounds of the present invention was determined in accordance with the following experimental method. PDE10A2 was amplified from human fetal brain cDNA (Clontech, Mountain View, Calif.) using a forward primer corresponding to nucleotides 56-77 of human PDE10A2 (Accession No. AF127480, Genbank Identifier 4894716), containing a Kozak consensus sequence, and a reverse primer corresponding to nucleotides 2406-2413 of human PDE10A2 (Accession No. AF127480, Genbank Identifier 4894716). Amplification with Easy-A polymerase (Stratagene, La Jolla, Calif.) was 95° C. for 2 minutes followed by thirty three cycles of 95° C. for 40 seconds, 55° C. for 30 seconds, and 72° C. for 2 minutes 48 seconds. Final extension was 72° C. for 7 minutes. The PCR product was TA cloned into pcDNA3.2-TOPO (Invitrogen, Carlsbad, Calif.) according to standard protocol. AD293 cells with 70-80% confluency were transiently transfected with human PDE10A2/pcDNA3.2-TOPO using Lipofectamine 2000 according to manufacturer specifications (Invitrogen, Carlsbad, Calif.). Cells were harvested 48 hours post-transfection and lysed by sonication (setting 3, 10×5 sec pulses) in a buffer containing 20 mM HEPES, 1 mM EDTA and protease inhibitor cocktail (Roche). Lysate was collected by centrifugation at 75,000×g for 20 minutes. Supernatant containing the cytoplasmic fraction was used for evaluation of PDE10A2 activity. The fluorescence polarization assay for cyclic nucleotide phosphodiesterases was performed using an IMAP® FP kit supplied by Molecular Devices, Sunnyvale, Calif. (product # R8139). IMAP® technology has been applied previously to phosphodiesterase assays (Huang, W., et al., J. Biomol Screen, 2002, 7: 215). Assays were performed at room temperature in 384-well microtiter plates with an incubation volume of 20.2 μL. Solutions of test compounds were prepared in DMSO and serially diluted with DMSO to yield 8 μL of each of 10 solutions differing by 3-fold in concentration, at 32 serial dilutions per plate. […] 0% of inhibition is determined by using DMSO (1% final concentrations).
A Labcyte Echo 555 (Labcyte, Sunnyvale, Calif.) is used to dispense 200 nL from each well of the titration plate to the 384 well assay plate. A solution of enzyme (1/1600 dilution from aliquots; sufficient to produce 20% substrate conversion) and a separate solution of FAM-labeled cAMP PDE from Molecular Devices (product # R7506), at a final concentration of 50 nM are made in the assay buffer (10 mM Tris HCl, pH 7.2, 10 mM MgCl2, 0.05% NaN3 0.01% Tween-20, and 1 mM DTT). The enzyme and the substrate are then added to the assay plates in two consecutive additions of 10 μL, and then shaken to mix. The reaction is allowed to proceed at room temperature for 30 minutes. […] The enzymatic reaction is stopped by addition of 60 μL of the binding solution to each well of the assay plates and the plates are sealed and shaken for 10 seconds. The plate was incubated at room temperature for at least one hour prior to determining the fluorescence polarization (FP). The parallel and perpendicular fluorescence of each well of the plate was measured using a Perkin Elmer EnVision™ plate reader (Waltham, Mass.).
Fluorescence polarization (mP) was calculated from the parallel (S) and perpendicular (P) fluorescence of each sample well and the analogous values for the median control well, containing only substrate (So and Po), using the following equation: Polarization(mP)=1000*(S/So−P/Po)/(S/So+P/Po).
Dose-inhibition profiles for each compound were characterized by fitting the mP data to a four-parameter equation given below.
With `COc1ccc([C@H]2C[C@@H]2COc2nc(C)ncc2-c2ccc(S(C)(=O)=O)nc2)nc1` [Example 63, 4-(((1S,2S)-2-(5-methoxypyridin-2-yl)cyclopropyl)methoxy)-2-methyl-5-(6-(methylsulfonyl)pyridin-3-yl)pyrimidine], the pKi was 8.53.

For the compound `COc1ccc([C@H]2C[C@@H]2COc2nc(C)ncc2-c2cnc(C(C)(C)O)cn2)nc1` [Example 66, 2-(5-(4-(((1S,2S)-2-(5-methoxypyridin-2-yl)cyclopropyl)methoxy)-2-methylpyrimidin-5-yl)pyrazin-2-yl)propan-2-ol], the pKi is 8.50. `COc1ccc([C@H]2C[C@@H]2COc2nc(C)ncc2-c2ccc(O)nc2)nc1` [Example 69, 5-(4-(((1S,2S)-2-(5-methoxypyridin-2-yl)cyclopropyl)methoxy)-2-methylpyrimidin-5-yl)pyridin-2-ol]: the pKi is 9.03. The same measure for `COc1ccc([C@H]2C[C@@H]2COc2nc(C)ncc2-c2cnc(O)nc2)nc1` [Example 70, 4′-(((1S,2S)-2-(5-methoxypyridin-2-yl)cyclopropyl)methoxy)-2′-methyl-5,5′-bipyrimidin-2-ol]: 8.79. As for `COc1ccc([C@H]2C[C@@H]2COc2nc(C)ncc2-c2ccc(OC(CO)CO)nc2)nc1` [Example 71, 2-(5-(4-(((1S,2S)-2-(5-methoxypyridin-2-yl)cyclopropyl)methoxy)-2-methylpyrimidin-5-yl)pyridin-2-yloxy)propane-1,3-diol], the figure is 8.32. The same measure for `COc1ccc([C@H]2C[C@@H]2COc2nc(C)ncc2-c2ccc(OCC3CC3)nc2)nc1` [Example 72, 5-(6-(cyclopropylmethoxy)pyridin-3-yl)-4-(((1S,2S)-2-(5-methoxypyridin-2-yl)cyclopropyl)methoxy)-2-methylpyrimidine]: 9.30; for `COc1ccc([C@H]2C[C@@H]2COc2nc(C)ncc2-c2cnsc2)nc1` [Example 73, 4-(4-(((1S,2S)-2-(5-methoxypyridin-2-yl)cyclopropyl)methoxy)-2-methylpyrimidin-5-yl)isothiazole]: 8.95; for `COc1ccc([C@H]2C[C@@H]2COc2nc(C)ncc2-c2ccnc(OC(C)C)c2)nc1` [Example 74, 5-(2-isopropoxypyridin-4-yl)-4-(((1S,2S)-2-(5-methoxypyridin-2-yl)cyclopropyl)methoxy)-2-methylpyrimidine]: 9.74.

Regarding `CCOc1cc(-c2cnc(C)nc2OC[C@H]2C[C@@H]2c2ccc(OC)cn2)ccn1` [Example 75, 5-(2-ethoxypyridin-4-yl)-4-(((1S,2S)-2-(5-methoxypyridin-2-yl)cyclopropyl)methoxy)-2-methylpyrimidine], the negative-log Ki (pKi) is 9.85. As for `COc1ccc([C@H]2C[C@@H]2COc2nc(C)ncc2C2=CC(=O)CC2)nc1` [Example 76, 3-(4-(((1S,2S)-2-(5-methoxypyridin-2-yl)cyclopropyl)methoxy)-2-methylpyrimidin-5-yl)cyclopent-2-enone], the figure is 9.32; as for `COc1ccc([C@H]2C[C@@H]2COc2nc(C)ncc2C2=CC(=O)CC2)nc1` [Example 77, 3-(4-(((1S,2S)-2-(5-methoxypyridin-2-yl)cyclopropyl)methoxy)-2-methylpyrimidin-5-yl)cyclopent-2-enone], 8.20.

Regarding `COc1ccc([C@H]2C[C@@H]2COc2nc(C)ncc2C2CCC(=O)C2)nc1` (stereo partly shown) [Example 78], the pKi was 8.08.

With `COc1ccc([C@H]2C[C@@H]2COc2nc(C)ncc2[C@H]2CC[C@@H](O)C2)nc1` [Example 79, (1R,3S)-3-(4-(((1S,2S)-2-(5-methoxypyridin-2-yl)cyclopropyl)methoxy)-2-methylpyrimidin-5-yl)cyclopentanol], the pKi was 8.25. Regarding `COc1ccc([C@H]2C[C@@H]2COc2nc(C)ncc2[C@@H]2CC[C@@H](O)C2)nc1` [Example 80, (1R,3R)-3-(4-(((1S,2S)-2-(5-methoxypyridin-2-yl)cyclopropyl)methoxy)-2-methylpyrimidin-5-yl)cyclopentanol], the pKi was 8.26. The same measure for `COc1ccc([C@H]2C[C@@H]2COc2nc(C)ncc2-c2ccc(Br)cc2)nc1` [Example 81, 5-(4-bromophenyl)-4-(((1S,2S)-2-(5-methoxypyridin-2-yl)cyclopropyl)methoxy)-2-methylpyrimidine]: 8.30; for `COc1ccc([C@H]2C[C@@H]2COc2nc(C)ncc2-c2cn(C)nc2C(F)(F)F)nc1` [Example 82, 4-(((1S,2S)-2-(5-methoxypyridin-2-yl)cyclopropyl)methoxy)-2-methyl-5-(1-methyl-3-(trifluoromethyl)-1H-pyrazol-4-yl)pyrimidine]: 9.70; for `CCc1ccc(-c2cnc(C)nc2OC[C@H]2C[C@@H]2c2ccc(OC)cn2)cn1` [Example 85, 5-(6-ethylpyridin-3-yl)-4-(((1S,2S)-2-(5-methoxypyridin-2-yl)cyclopropyl)methoxy)-2-methylpyrimidine]: 9.07. As for `COc1ccc([C@H]2C[C@@H]2COc2nc(C)ncc2-c2ccc(Br)cn2)nc1` [Example 86, 5-(5-bromopyridin-2-yl)-4-(((1S,2S)-2-(5-methoxypyridin-2-yl)cyclopropyl)methoxy)-2-methylpyrimidine], the figure is 7.93. In the case of `COc1ccc([C@H]2C[C@@H]2COc2nc(C)ncc2-c2cc(C(F)(F)F)cnc2Cl)nc1` [Example 87, 5-(2-chloro-5-(trifluoromethyl)pyridin-3-yl)-4-(((1S,2S)-2-(5-methoxypyridin-2-yl)cyclopropyl)methoxy)-2-methylpyrimidine], the pKi was 9.36. `COc1ccc([C@H]2C[C@@H]2COc2nc(C)ncc2-c2cc(Cl)ncc2C(F)(F)F)nc1` [Example 88, 5-(2-chloro-5-(trifluoromethyl)pyridin-4-yl)-4-(((1S,2S)-2-(5-methoxypyridin-2-yl)cyclopropyl)methoxy)-2-methylpyrimidine]: the pKi was 9.00. As for `COc1ccc([C@H]2C[C@@H]2COc2nc(C)ncc2-c2ccc(C3(O)CCCC3)nc2)nc1` [Example 89, 1-(5-(4-(((1S,2S)-2-(5-methoxypyridin-2-yl)cyclopropyl)methoxy)-2-methylpyrimidin-5-yl)pyridin-2-yl)cyclopentanol], the figure is 10.22; as for `COc1ccc([C@H]2C[C@@H]2COc2nc(C)ncc2-c2ccc3[nH]ccc3c2)nc1` [Example 90, 5-(4-(((1S,2S)-2-(5-methoxypyridin-2-yl)cyclopropyl)methoxy)-2-methylpyrimidin-5-yl)-1H-indole], 8.67. As for `COc1ccc([C@H]2C[C@@H]2COc2nc(C)ncc2-c2ccc(C3(O)COC3)nc2)nc1` [Example 91], the figure is 9.80. The same measure for `COc1ccc([C@H]2C[C@@H]2COc2nc(C)ncc2-c2ccc(C3(O)CCC3)nc2)nc1` [Example 92, 1-(5-(4-(((1S,2S)-2-(5-methoxypyridin-2-yl)cyclopropyl)methoxy)-2-methylpyrimidin-5-yl)pyridin-2-yl)cyclobutano1]: 9.92; for `COc1ccc([C@H]2C[C@@H]2COc2nc(C)ncc2-c2ccc(-c3ncno3)cc2)nc1` [Example 93, 5-(4-(4-(((1S,2S)-2-(5-methoxypyridin-2-yl)cyclopropyl)methoxy)-2-methylpyrimidin-5-yl)phenyl)-1,2,4-oxadiazole]: 9.82.
